Test results reported in US5627270A, “Glycosylated steroid derivatives for transport across biological membranes and process for making and using same” (Trustees of Princeton University, priority 1994, dated 1997).
“Also recorded” adds a separate entry of the source. Read-outs that look alike come from different tables or passages of the source.

Key:
[1] = tested on: DH2 cells (a mutant strain of E. coli K-12); format: cell-based; settings: for EFFECT (enhancement of erythromycin): compound 20 mM; on EFFECT (enhancement of erythromycin): key: --: erythromycin alone at 1.0 mM (baseline) and all lesser effects; +: enhancement relative to baseline; +++: significant enhancement relative to baseline
[2] = tested on: Crithidia fasciculate; test: ASSAY IV: efficacy of antifungal agents on protozoa with and without added glycosylated steroid derivatives; format: cell-based
[3] = ASSAY I: leakage of carboxyfluorescein from vesicles; format: biochemical; settings: for efficacy in permeabilizing phospholipid membranes: concentrations required for >50% leakage taken as measure
[4] = ASSAY II: proton transport across lipid membranes; format: biochemical
[5] = Plasma vancomycin after ileal co-administration in the rat
[6] = Plasma gentamicin after ileal co-administration in the rat; settings: absence of 1
[7] = 0.000579 mM final concentration

| Compound | % increase in Fluorescence ([3]; 0.117 mM final concentration) | efficacy in permeabilizing phospholipid membranes [3] | % Decrease in Fluorescence ([4]; 0.0116 mM final concentration) | % Decrease in Fluorescence ([4]; 0.00579 mM final concentration) | other results |
| --- | --- | --- | --- | --- | --- |
| C[C@H](CCC(=O)O)[C@H]1CC[C@H]2[C@@H]3[C@H](O[C@H]4O[C@H](CO)[C@@H](O)[C@H](O)[C@H]4O)C[C@@H]4C[C@H](O)CC[C@]4(C)[C@H]3C[C@H](O[C@H]3O[C@H](CO)[C@@H](O)[C@H](O)[C@H]3O)[C@]12C [3α-OH-cis-5,10-bis-α,α-glucosyl cholic acid K^+] |  |  |  |  | EFFECT (enhancement of erythromycin) ([1]; erythromycin 0.5 mM): +; EFFECT (enhancement of erythromycin) ([1]; erythromycin 1.0 mM): + |
| COC(=O)CC[C@@H](C)[C@H]1CC[C@H]2[C@@H]3[C@H](O)C[C@@H]4C[C@H](OC(=O)c5ccc(OC)cc5)CC[C@]4(C)[C@H]3C[C@H](O)[C@]12C [CDE, 3α-O-p-methoxybenzoyl-cis-5,10-cholic acid methyl ester, reference compound] |  |  |  |  | enhancement of antifungal efficacy ([2]; with 24-TC (thiacholestanol)): lack of an enhancing effect; also recorded: not observed to act as an enhancer; enhancing effect on erythromycin ([1]; lower concentrations (Table V)): does not function as an enhancer |
| C[C@H](CCC(=O)O)[C@H]1CC[C@H]2[C@@H]3[C@H](O)C[C@@H]4C[C@H](O)CC[C@]4(C)[C@H]3CC[C@]12C [Chenodeoxycholic Acid, reference compound] | 17.7% | also permeabilize membranes in this assay, although at much higher concentrations | 8.2% |  | % increase in Fluorescence ([3]; 1.17 mM final concentration): 80.9%; enhancing effect on erythromycin ([1]; test compound 20 mM): did not have a detectable effect |
| C[C@H](CCC(=O)O)[C@H]1CC[C@H]2[C@@H]3[C@H](O)C[C@@H]4C[C@H](O)CC[C@]4(C)[C@H]3C[C@H](O)[C@]12C [Cholic Acid, reference compound] | 0% | also permeabilize membranes in this assay, although at much higher concentrations |  |  | % increase in Fluorescence ([3]; 2.341 mM final concentration): 59.1%; % Decrease in Fluorescence [4]: 1.0%; enhancing effect on erythromycin ([1]; test compound 20 mM): did not have a detectable effect |
| C[C@H](CCC(=O)O)[C@H]1CC[C@H]2[C@@H]3CC[C@@H]4C[C@H](O)CC[C@]4(C)[C@H]3C[C@H](O)[C@]12C [Deoxycholic Acid, reference compound] |  | also permeabilize membranes in this assay, although at much higher concentrations |  |  | EFFECT (enhancement of erythromycin) ([1]; erythromycin 0.5 mM): +; EFFECT (enhancement of erythromycin) ([1]; erythromycin 1.0 mM): +; enhancing effect on erythromycin ([1]; test compound 20 mM): showed any effect |
| CCOC(=O)O[C@@H]1CC[C@@]2(C)[C@@H](C1)C[C@@H](O[C@H]1O[C@H](CO)[C@@H](O)[C@H](O)[C@H]1O)[C@@H]1[C@@H]2C[C@H](O[C@H]2O[C@H](CO)[C@@H](O)[C@H](O)[C@H]2O)[C@]2(C)[C@@H]([C@H](C)CCC(=O)OC)CC[C@@H]12 [Entry 1, 3α-ethylcarbonate-cis-5,10-bis-α,α-7,12-glucosyl cholic acid methyl ester] | 0% |  | 7.6% | 4.3% |  |
| C[C@H](CCC(=O)O)[C@H]1CC[C@H]2[C@@H]3[C@H](O[C@H]4O[C@H](CO)[C@@H](O)[C@H](O)[C@H]4O)C[C@@H]4C[C@H](O)CC[C@]4(C)[C@H]3C[C@H](O[C@H]3O[C@H](CO)[C@@H](O)[C@H](O)[C@H]3O)[C@]12C [Entry 3, 3α-hydroxy-cis-5,10-bis-α,α-7,12-glucosyl cholic acid] |  |  | 35.4% | 21.0% | % increase in Fluorescence ([3]; 2.34 mM final concentration): 0% |
| COC(=O)CC[C@@H](C)[C@H]1CC[C@H]2[C@@H]3[C@H](O[C@H]4O[C@H](CO)[C@@H](O)[C@H](O)[C@H]4O)C[C@@H]4C[C@H](O)CC[C@]4(C)[C@H]3C[C@H](O[C@H]3O[C@H](CO)[C@@H](O)[C@H](O)[C@H]3O)[C@]12C [Entry 4, 3α-hydroxy-cis-5,10-bis-α,α-7,12-glucosyl cholic acid methyl ester] | 0% |  | 12.3% | 7.89% |  |
| C[C@H](CCC(=O)NC(Cc1c[nH]c2ccccc12)C(=O)O)[C@H]1CC[C@H]2[C@@H]3[C@H](O[C@H]4O[C@H](CO)[C@@H](O)[C@H](O)[C@H]4O)C[C@@H]4C[C@H](O)CC[C@]4(C)[C@H]3C[C@H](O[C@H]3O[C@H](CO)[C@@H](O)[C@H](O)[C@H]3O)[C@]12C (stereo partly drawn) [Entry 5, 3α-hydroxy-cis-5,10-bis-α,α-7,12-glucosyl-25-tryptophanyl cholic acid] | 57.3% |  | 26.1% | 19.4% |  |
| COC(=O)CC[C@@H](C)[C@H]1CC[C@H]2[C@@H]3[C@H](O[C@H]4O[C@H](CO)[C@@H](O)[C@H](O)[C@H]4O)C[C@@H]4C[C@H](OC(=O)c5ccccc5)CC[C@]4(C)[C@H]3C[C@H](O[C@H]3O[C@H](CO)[C@@H](O)[C@H](O)[C@H]3O)[C@]12C [Entry 7, 3α-O-benzoyl-cis-5,10-bis-α,α-7,12-glucosyl cholic acid methyl ester] | 89.1% | the most effective glycosylated steroids tested | 19.8% | 15.2% |  |
| COC(=O)CC[C@@H](C)[C@H]1CC[C@H]2[C@@H]3[C@H](O[C@H]4O[C@H](CO)[C@@H](O)[C@H](O)[C@H]4O)C[C@@H]4C[C@H](OC(=O)c5ccc(OC)cc5)CC[C@]4(C)[C@H]3C[C@H](O[C@H]3O[C@H](CO)[C@@H](O)[C@H](O)[C@H]3O)[C@]12C [Entry 8, 3α-O-p-methoxybenzoyl-cis-5,10-bis-α,α-7,12-glucosyl cholic acid methyl ester] | 89.1% | the most effective glycosylated steroids tested | 32.2% | 20.6% | efficacy in permeabilizing phospholipid membranes ([3]; listed as CME): a good membrane permeabilizing agent; enhancement of antifungal efficacy ([2]; with 10-TSA (thiastearic acid), listed as CME): enhancing effect; also recorded: enhances the efficacy of 10-TSA dramatically; enhancement of antifungal efficacy ([2]; with 24-TC (thiacholestanol), listed as CME): enhancing effect; also recorded: enhance the efficacy of 24-TC; EFFECT (clearing) ([1]; compound 0.001 mM, erythromycin 0.01 mM): +; EFFECT (clearing) ([1]; compound 0.01 mM, erythromycin 0.01 mM): +; EFFECT (clearing) ([1]; compound 0.1 mM, erythromycin 0.01 mM): +; EFFECT (clearing) ([1]; compound 0.1 mM, erythromycin 0.1 mM): +; EFFECT (enhancement of erythromycin) ([1]; erythromycin 0.5 mM): +++; EFFECT (enhancement of erythromycin) ([1]; erythromycin 1.0 mM): +++; enhancing effect on erythromycin ([1]; lower concentrations (Table V)): acts as an enhancer at very low concentrations; enhancing effect on erythromycin ([1]; test compound 20 mM): the best "enhancer" in this assay |
| COC(=O)CC[C@@H](C)[C@H]1CC[C@H]2[C@@H]3[C@H](O[C@@H]4O[C@H](CO)[C@@H](O)[C@H](O)[C@H]4O)C[C@H]4C[C@H](OC(=O)c5ccccc5)CC[C@]4(C)[C@H]3C[C@H](O[C@@H]3O[C@H](CO)[C@@H](O)[C@H](O)[C@H]3O)[C@]12C [Entry 9, 3α-O-benzoyl-trans-5,10-bis-β,β-7,12-glucosyl cholic acid methyl ester] | 24.5% |  | 43.0% | 27.4% |  |
| C[C@H](CCC(=O)O)[C@H]1CC[C@H]2[C@@H]3[C@H](O[C@@H]4O[C@H](CO)[C@@H](O)[C@H](O)[C@H]4O)C[C@@H]4C[C@H](O)CC[C@]4(C)[C@H]3C[C@H](O[C@@H]3O[C@H](CO)[C@@H](O)[C@H](O)[C@H]3O)[C@]12C [Entry 10, 3α-hydroxy-cis-5,10-bis-β,β-7,12-glucosyl cholic acid] | 0% |  |  |  |  |
| COC(=O)CC[C@@H](C)[C@H]1CC[C@H]2[C@@H]3[C@H](O[C@H]4O[C@H](CO)[C@@H](O)[C@H](O)[C@H]4O)C[C@H]4C[C@H](OC(=O)c5ccccc5)CC[C@]4(C)[C@H]3C[C@H](O[C@H]3O[C@H](CO)[C@@H](O)[C@H](O)[C@H]3O)[C@]12C [Entry 11, 3α-O-benzoyl-trans-5,10-bis-α,α-7,12-glucosyl cholic acid methyl ester] | 98% | the most effective glycosylated steroids tested | 22.0% |  | % Decrease in Fluorescence ([4]; 0.00585 mM final concentration): 14.7%; EFFECT (enhancement of erythromycin) ([1]; erythromycin 0.5 mM): +; EFFECT (enhancement of erythromycin) ([1]; erythromycin 1.0 mM): + |
| C[C@H](CCC(=O)O)[C@H]1CC[C@H]2[C@@H]3[C@H](O[C@@H]4O[C@H](CO)[C@@H](O)[C@H](O)[C@H]4O)C[C@H]4C[C@H](O)CC[C@]4(C)[C@H]3C[C@H](O[C@@H]3O[C@H](CO)[C@@H](O)[C@H](O)[C@H]3O)[C@]12C [Entry 13, 3α-hydroxy-trans-5,10-bis-β,β-7,12-glucosyl cholic acid] | 0% |  | 70.6% | 35.2% | % Decrease in Fluorescence [4, 7]: 2.8% |
| COC(=O)CC[C@@H](C)[C@H]1CC[C@H]2[C@@H]3[C@H](O)C[C@@H]4C[C@H](O)CC[C@]4(C)[C@H]3C[C@H](O)[C@]12C [Methyl Cholate, reference compound] | 25.4% |  | 5.4% |  |  |
| CN[C@H](CC(C)C)C(=O)N[C@H]1C(=O)N[C@@H](CC(N)=O)C(=O)N[C@H]2C(=O)N[C@H]3C(=O)N[C@H](C(=O)N[C@H](C(=O)O)c4cc(O)cc(O)c4-c4cc3ccc4O)[C@H](O)c3ccc(c(Cl)c3)Oc3cc2cc(c3O[C@@H]2O[C@H](CO)[C@@H](O)[C@H](O)[C@H]2O[C@H]2C[C@](C)(N)[C@H](O)[C@H](C)O2)Oc2ccc(cc2Cl)[C@H]1O [Vancomycin] |  |  |  |  | clearance from the circulation ([5]; ileum versus IV): cleared more slowly from the circulation when administered via the ileum than via IV; Cmax ([5]; rat, in vivo, 5 mg): 5000 to 10000 ng/mL |
| Gramicidin [reference compound] |  |  |  | 87.2% | % Decrease in Fluorescence [4, 7]: 81.6% |
| gentamicin |  |  |  |  | ileal bioavailability of gentamicin [6]: 10.7%; plasma concentrations of gentamicin ([6]; ileal, 5 mg antibiotic): 1 to 7 µg/mL |
